Experimental data taken from publication PMC12155096 (International Journal of Molecular Sciences, 2025).
Read-outs that look alike come from different tables or passages of the source.

How the values were obtained:
[1] = biological target: T1, human CYP1A2 (Homo sapiens, UniProt P05177)
T1 sequence (P05177 1-516): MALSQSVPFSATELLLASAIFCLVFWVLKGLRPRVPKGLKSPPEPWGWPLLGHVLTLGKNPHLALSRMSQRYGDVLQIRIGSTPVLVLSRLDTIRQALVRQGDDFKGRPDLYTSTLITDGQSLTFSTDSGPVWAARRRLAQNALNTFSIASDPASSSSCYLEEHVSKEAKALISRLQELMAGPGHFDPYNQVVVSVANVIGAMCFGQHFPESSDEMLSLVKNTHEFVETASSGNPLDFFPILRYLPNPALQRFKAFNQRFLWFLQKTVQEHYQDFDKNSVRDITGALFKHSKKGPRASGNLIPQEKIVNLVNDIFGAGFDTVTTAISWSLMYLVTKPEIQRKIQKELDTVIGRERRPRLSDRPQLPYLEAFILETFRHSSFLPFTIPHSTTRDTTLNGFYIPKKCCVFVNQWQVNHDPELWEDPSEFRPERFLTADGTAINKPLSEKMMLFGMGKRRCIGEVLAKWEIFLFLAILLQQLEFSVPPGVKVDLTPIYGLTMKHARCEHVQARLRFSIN

[2] = biological target: T2, human CYP2C9 (Homo sapiens, UniProt P11712)
[3] = biological target: T3, human CYP2C19 (Homo sapiens, UniProt P33261)
[4] = biological target: human CYP2D6 (Homo sapiens, UniProt P10635)
[5] = biological target: CYP3A4 (Homo sapiens, UniProt P08684); assay: biochemical
[6] = biological target: T1, human CYP1A2; assay: biochemical
[7] = biological target: T2, human CYP2C9; assay: biochemical
[8] = biological target: T3, human CYP2C19; assay: biochemical; conditions: CYP2C19 AC50 (half-maximal activity concentration)
[9] = CYP3A4 AC50 (half-maximal activity concentration)
[10] = CYP1A2 AC50 (half-maximal activity concentration)
[11] = CYP2C9 AC50 (half-maximal activity concentration)

T2 sequence (P11712 whole entry): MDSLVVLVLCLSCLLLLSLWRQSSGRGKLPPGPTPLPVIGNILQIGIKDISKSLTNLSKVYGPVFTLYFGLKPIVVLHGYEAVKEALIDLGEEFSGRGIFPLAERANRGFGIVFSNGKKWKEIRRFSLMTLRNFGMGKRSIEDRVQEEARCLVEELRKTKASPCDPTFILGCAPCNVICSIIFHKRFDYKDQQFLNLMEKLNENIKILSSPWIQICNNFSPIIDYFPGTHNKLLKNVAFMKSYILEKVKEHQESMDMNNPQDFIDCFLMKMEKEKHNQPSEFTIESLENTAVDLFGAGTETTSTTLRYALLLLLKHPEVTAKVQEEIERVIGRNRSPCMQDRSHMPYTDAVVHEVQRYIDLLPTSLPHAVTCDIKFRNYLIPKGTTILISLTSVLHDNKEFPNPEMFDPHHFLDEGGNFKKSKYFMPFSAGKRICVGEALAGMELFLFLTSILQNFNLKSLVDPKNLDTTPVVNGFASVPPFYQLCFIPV
Sequence of CYP3A4 (P08684 whole entry): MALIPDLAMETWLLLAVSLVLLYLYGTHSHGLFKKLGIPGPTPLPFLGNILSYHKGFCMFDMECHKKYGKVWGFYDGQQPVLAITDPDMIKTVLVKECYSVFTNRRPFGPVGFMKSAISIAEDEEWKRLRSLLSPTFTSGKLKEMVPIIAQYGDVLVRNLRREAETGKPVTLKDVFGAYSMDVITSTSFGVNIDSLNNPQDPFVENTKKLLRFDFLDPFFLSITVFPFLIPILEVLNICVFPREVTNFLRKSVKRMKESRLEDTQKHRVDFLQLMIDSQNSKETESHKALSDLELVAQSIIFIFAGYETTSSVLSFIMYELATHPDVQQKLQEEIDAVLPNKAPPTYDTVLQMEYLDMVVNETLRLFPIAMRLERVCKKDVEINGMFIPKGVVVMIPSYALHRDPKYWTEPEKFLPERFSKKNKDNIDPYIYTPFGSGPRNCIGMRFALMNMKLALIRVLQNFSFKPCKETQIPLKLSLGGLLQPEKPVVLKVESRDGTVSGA
T3 sequence (P33261 whole entry): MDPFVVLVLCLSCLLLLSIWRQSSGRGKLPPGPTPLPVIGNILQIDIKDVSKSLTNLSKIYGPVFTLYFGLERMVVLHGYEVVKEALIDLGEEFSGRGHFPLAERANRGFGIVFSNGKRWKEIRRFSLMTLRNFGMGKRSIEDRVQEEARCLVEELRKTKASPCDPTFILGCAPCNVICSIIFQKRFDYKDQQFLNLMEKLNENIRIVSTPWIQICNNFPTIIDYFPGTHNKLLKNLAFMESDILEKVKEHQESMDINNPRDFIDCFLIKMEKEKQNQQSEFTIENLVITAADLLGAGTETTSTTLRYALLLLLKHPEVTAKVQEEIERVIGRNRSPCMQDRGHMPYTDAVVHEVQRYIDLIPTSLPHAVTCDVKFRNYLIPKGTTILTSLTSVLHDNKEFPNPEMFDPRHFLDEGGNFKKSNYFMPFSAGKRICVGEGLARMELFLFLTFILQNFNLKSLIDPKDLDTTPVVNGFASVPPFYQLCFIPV
Sequence of human CYP2D6 (P10635 whole entry): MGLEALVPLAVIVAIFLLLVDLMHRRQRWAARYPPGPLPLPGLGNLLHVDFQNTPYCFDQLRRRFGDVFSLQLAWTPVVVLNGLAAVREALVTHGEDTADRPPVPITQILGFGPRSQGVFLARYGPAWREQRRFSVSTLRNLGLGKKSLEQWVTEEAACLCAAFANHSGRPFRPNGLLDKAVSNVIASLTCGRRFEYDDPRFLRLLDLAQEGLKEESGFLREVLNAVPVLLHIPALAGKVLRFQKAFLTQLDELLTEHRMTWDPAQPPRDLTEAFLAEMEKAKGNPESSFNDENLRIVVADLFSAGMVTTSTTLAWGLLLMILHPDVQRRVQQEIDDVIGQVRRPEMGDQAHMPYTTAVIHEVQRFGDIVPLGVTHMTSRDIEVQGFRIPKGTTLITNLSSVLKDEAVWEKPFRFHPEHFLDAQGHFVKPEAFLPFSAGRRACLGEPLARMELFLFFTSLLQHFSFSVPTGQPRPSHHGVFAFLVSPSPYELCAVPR

| SMILES | CYP1A2 AC50 (half-maximal activity concentration) [1] | CYP2C9 AC50 (half-maximal activity concentration) [2] | CYP2C19 AC50 (half-maximal activity concentration) [3] | CYP2D6 AC50 (half-maximal activity concentration) [4] | AC50 [5, 9] [µM] | AC50 [6, 10] [µM] | AC50 [7, 11] [µM] | AC50 [6] [µM] | AC50 [7] [µM] | AC50 [5] [µM] | AC50 [8] [µM] |
| --- | --- | --- | --- | --- | --- | --- | --- | --- | --- | --- | --- |
| Clc1cc(Cl)c(-c2c(Cl)c(Cl)cc(Cl)c2Cl)cc1Cl | Inactive | Inactive | Inconclusive activator | Inactive | 24.9 | – | – | – | – | – | – |
| CC=CC(=O)N(CC)c1ccccc1C (mixture of isomers) [Crotamiton] | – | – | Inconclusive inhibitor | Inactive | 7.51 | 31.4 | 40.1 | – | – | – | – |
| O=C(O)c1cccc(C(=O)O)c1 [1,3-Benzenedicarboxylic acid] | Inactive | Inconclusive activator | Inactive | Inactive | 9.6 | – | – | – | – | – | – |
| CCCCCCCCCCCCN1CCCC1=O [1-Dodecyl-2-pyrrolidinone] | – | – | Inconclusive inhibitor | Inactive | – | – | – | 29.7 | 37.9 | 9.84 | – |
| Oc1c(Cl)cc(Cl)c(Cl)c1Cl [2,3,4,6-Tetrachlorophenol] | – | – | Inactive | Inactive | 67 | 57.1 | 28.3 | – | – | – | – |
| Oc1c(Cl)c(Cl)cc(Cl)c1Cl [2,3,5,6-Tetrachlorophenol] | – | – | Inconclusive inhibitor | Inactive | 58.1 | 66.6 | 22.7 | – | – | – | – |
| O=C(O)c1cc(I)cc(I)c1I [2,3,5-Triiodobenzoic acid] | – | – | Inconclusive inhibitor | Inactive | 75.1 | 57.3 | 20.9 | – | – | – | – |
| Oc1c(Cl)ccc(Cl)c1Cl [2,3,6-Trichlorophenol] | – | – | Inconclusive inhibitor | Inconclusive inhibitor | 55.4 | 37 | 35.7 | – | – | – | – |
| CCCCC(C=O)CC (stereo not shown) [2-Ethylhexanal] | Inactive | Inactive | Inactive | Inactive | – | – | – | – | – | 45.1 | – |
| O=C(O)c1cccc(Oc2ccccc2)c1 [3-Phenoxybenzoic acid] | Inactive | Inactive | Inactive | Inactive | – | – | – | – | – | 35.6 | – |
| Cc1ccc(C(=O)O)cc1[N+](=O)[O-] [4-Methyl-3-nitrobenzoic acid] | Inconclusive inhibitor | Inactive | Inactive | Inactive | 35.3 | – | – | – | – | – | – |
| COc1cc(Nc2c(C#N)cnc3cc(OCCCN4CCN(C)CC4)c(OC)cc23)c(Cl)cc1Cl [Bosutinib] | Inactive | Inactive | Inactive | Inconclusive inhibitor | 3.48 | – | – | – | – | – | – |
| O=C(CCCN1CCC(O)(c2ccc(Br)cc2)CC1)c1ccc(F)cc1 [Bromperidol] | Inactive | Inactive | Inactive | Inconclusive inhibitor | 4.92 | – | – | – | – | – | – |
| O=C(NC(=O)c1c(F)cccc1F)Nc1cc(Cl)c(Oc2ncc(C(F)(F)F)cc2Cl)c(Cl)c1 [Chlorfluazuron] | Inactive | Inconclusive inhibitor | Inconclusive inhibitor | Inactive | 9.2 | – | – | – | – | – | – |
| CCSC(=O)N(CC)C1CCCCC1 [Cycloate] | Inactive | Inconclusive inhibitor | Inconclusive inhibitor | Inactive | 31.7 | – | – | – | – | – | – |
| N#Cc1c(Cl)cccc1Cl [Dichlobenil] | Inconclusive inhibitor | Inconclusive inhibitor | Inactive | Inactive | 17.8 | – | – | – | – | – | – |
| C[C@]12CC[C@@H]3c4ccc(OC(=O)N(CCCl)CCCl)cc4CC[C@H]3[C@@H]1CC[C@@H]2O [Estramustine] | Inactive | Inactive | Inactive | Inactive | 16.9 | – | – | – | – | – | – |
| CCC1(c2ccccc2)CCC(=O)NC1=O (stereo not shown) [Glutethimide] | Inactive | Inconclusive inhibitor | Inconclusive inhibitor | Inactive | 26 | – | – | – | – | – | – |
| C[C@@H]1CC[C@@]2(OC1)O[C@H]1C[C@H]3[C@@H]4CC[C@H]5C[C@@H](O)CC[C@]5(C)[C@H]4CC(=O)[C@]3(C)[C@H]1[C@@H]2C [Hecogenin] | Inactive | Inactive | Inactive | Inactive | 0.98 | – | – | – | – | – | – |
| O=C(O)CCCc1c[nH]c2ccccc12 [Indole-3-butyric acid] | Inactive | Inactive | Inconclusive inhibitor | Inactive | 13.4 | – | – | – | – | – | – |
| O=C(CCOCCOCCOCCOCCC(=O)Nc1c(I)cc(I)c(C(=O)O)c1I)Nc1c(I)cc(I)c(C(=O)O)c1I [Iodoxamic Acid] | Inactive | Inactive | Inactive | Inactive | – | – | – | – | – | 5.65 ± 2.66 | – |
| CC(=O)[C@H]1[C@H](C#N)C[C@H]2[C@@H]3CC=C4C[C@@H](O)CC[C@]4(C)[C@H]3CC[C@@]21C [Pregnenolone carbonitrile] | Inactive | Inconclusive inhibitor | Inactive | Inactive | 2.22 | – | – | – | – | – | – |
| O=C1OC(=O)c2c(Cl)c(Cl)c(Cl)c(Cl)c21 [Tetrachlorophthalic anhydride] | Inactive | Inactive | – | Inconclusive inhibitor | 34.7 | – | – | – | – | – | 89.4 |
